Assay results published in US12427133B2, “Combination therapies comprising schweinfurthin compounds for treating cancer” (The Penn State Research Foundation, priority 2018, dated 2025).

Experiments:
[1] = Tolerability / maximum tolerated dosage; settings: in vivo
Protocol: TTI-7106 is used for these experiments near the maximum tolerated dosage (MTD) of 40 mg/kg. […] TTI-7106 is authenticated in batches based on the NMR spectroscopy and mass spectrometry. All experiments are carried out on equal groups of male and female mice.

B16.F10 melanoma cells = experiment: Surface calreticulin expression (immunogenic cell death) by flow cytometry; format: cell-based, mouse (C57BL/6); settings: 24 hours of treatment
Protocol: B16.F10 melanoma cells were plated at 1.5-2.0×10^5 cells per well in 24-well plates in RPMI-1640 medium containing standard supplements and 10% fetal bovine serum (FBS) and incubated overnight at 37° C., 5% CO2. Compounds solubilized in dimethyl sulfoxide (DMSO) were added at the indicated concentrations and incubated for a further 24 hours at 37° C., 5% CO2. Control wells were treated with similar dilutions of DMSO. Cells were trypsinized and washed with FACS buffer (2% FBS+0.1% NaN3 in PBS) and seeded at 1-2×10^5 per well in 96-well round-bottom plates. Cells were stained with rabbit anti-calreticulin polyclonal antibody (1:100, Abcam ab2907) in FACS buffer for 30 minutes at 4° C. Following two washes, cells were labeled with goat anti-rabbit Alexa Fluor 488 (1:500, Thermo Fisher A11070) in FACS buffer for 30 minutes at 4° C. Cells were washed twice and labeled with 7-aminoactinomyosin D in order to exclude non-viable cells. Samples were immediately run on a BD LSR Fortessa flow cytometer and the data analyzed using FlowJo software.
(§1) Differences in tumor growth curves were evaluated by linear mixed models for longitudinal analysis and Kaplan-Meier survival curves were evaluated by log rank test. Differences in calreticulin expression were determined by two-way ANOVA with Bonferroni post-test. All data were analyzed using Graphpad Prism (version 7) or SAS (version 9.4) software.

B16.F10 tumors = experiment: In vivo tumor growth, survival and regression in the B16.F10 melanoma model with anti-PD-1 therapy; parameters: species or system C57BL/6J mice
Protocol: Groups of 8-week old C57BL/6J female mice were inoculated with 1×10^5 freshly cultured B16.F10 tumor cells subcutaneously in the left flank. Mice were monitored for the development of tumors and when palpable were randomized into groups. Mice received αPD-1 (clone RMP1-14; BioXCell) or control rat IgG (Sigma) at 200 μg/day intraperitoneally in a volume of 200 μl PBS twice per week for 3 weeks. Mice received daily TTI-4242 or TTI-3114 at 30 mg/kg/day or vehicle only for 5 consecutive days in a total volume of 100 μL. Tumors were measured with digital calipers and the tumor volume calculated as (length×width^2)/2. Mice were euthanized when the tumor volume exceeded 1500 mm^3, developed ascites or necrosis, or when mice became lethargic.
as §1

| Structure (SMILES) | maximum tolerated dosage (MTD) [1] | toxicity ([1]; 30 mg/kg) | concentration at which high levels of surface calreticulin expression are induced (B16.F10 melanoma cells) | induction of surface calreticulin (B16.F10 melanoma cells; flow cytometry) | tumors / mice showing initial tumor regression (B16.F10 tumors; during the period of schweinfurthin administration) [%] | tumor growth (rate / delay) (B16.F10 tumors; established s.c. B16.F10 tumors, schweinfurthin 30 mg/kg/day for 5 consecutive days, αPD-1 200 μg i.p. twice per week for 3 weeks) | MTD ([1]; both sexes, mouse) [mg/kg] |
| --- | --- | --- | --- | --- | --- | --- | --- |
| COc1cc(/C=C/c2cc(O)c3c(c2)C[C@@H]2C(C)(C)[C@H](O)CC[C@@]2(C)O3)cc2c1ccn2C [TTI-4242] | nearly identical MTD | low toxicity | below 2 nM | induced surface calreticulin | 50 | neither αPD-1 alone (FIG. 2C) nor TTI-4242 alone (FIG. 2D) impacted tumor growth rate |  |
| COc1cc(/C=C/c2cc(O)c3c(c2)C[C@@H]2C(C)(C)[C@H](O)CC[C@@]2(C)O3)cc(O)c1/C=C/c1c(C)noc1C [TTI-7106] |  |  |  |  |  |  | 40 |
